From patent US9708314B2, “Heterocyclic amide compound” (NISSAN CHEMICAL INDUSTRIES, LTD., priority 2013, dated 2017)

Columns and labels:
Type in all cases: in vivo
[1] = system: Echinochloa oryzacola Vasing.; experiment: Test Example 2: herbicidal activity, application during weed generation in submerged conditions; details: Eighteenth Table; application herbicide amount 320 g/ha
Procedure, shortened: (§1)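 Mixed sowings in flooded alluvial soil (4 cm water), greenhouse 25-30 °C; emulsifiable concentrate diluted in water applied to the water surface at the 1-2 leaf stage, rate in g/ha. Effect scored three weeks later on a 0-5 scale (5 = ≥90% herbicidal ratio, 0 = ≤5%).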

Monochoria vaginalis = experiment: as above; details: Eighteenth Table; application herbicide amount 320 g/ha
Procedure, shortened: as §1

Scirpus juncoides = experiment: as above; details: Eighteenth Table; application herbicide amount 320 g/ha
Procedure, shortened: as §1

[2] = system: directly sowed Oryza sativa; experiment: Test Example 3: effect on crop by application to foliage (Wagner pot, water depth 0.1-0.5 cm); details: Nineteenth Table; application herbicide amount 320 g/ha
Procedure, shortened: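 Visual 0–5 rating of herbicidal ratio, taken 3 weeks after foliar spray of a diluted emulsion formulation at rates expressed as g/ha. Plants had been sown in alluvial soil under 0.1–0.5 cm water and grown 14 days at 25–30 °C under glass before application.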

[3] = system: Beta vulgaris ssp. vulgaris; experiment: Test Example 4: effect on crop by application to foliage (diluvial soil, plastic box); details: application to foliage, application herbicide amount 320 g/ha
Procedure, shortened: (§2)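 Plants were grown in sterilized diluvial soil in a greenhouse at 25-30° C for 14 days, then sprayed on stems and leaves with water-diluted emulsion formulation at set rates in g/ha. Weed control and crop injury were scored 3 weeks after treatment on a 0-5 herbicidal-ratio scale, from 0 (≤5%) to 5 (≥90%).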

Brassica campestris L. = experiment: as above; details: application to foliage, application herbicide amount 320 g/ha
Procedure, shortened: as §2

Glycine max = experiment: as above; details: application to foliage, application herbicide amount 320 g/ha
Procedure, shortened: as §2

Triticum aestivum = experiment: as above; details: application to foliage, application herbicide amount 320 g/ha
Procedure, shortened: as §2

[4] = system: directly sowed Oryza sativa; experiment: as above; details: application to foliage, application herbicide amount 320 g/ha
Procedure, shortened: as §2

| SMILES | A (Echinochloa oryzicola Vasing.) herbicidal ratio grade [1] | C (Monochoria vaginalis) herbicidal ratio grade (Monochoria vaginalis) | B (Scirpus juncoides) herbicidal ratio grade (Scirpus juncoides) | b (directly sowed Oryza sativa) effect on crop grade [2] | f (Beta vulgaris ssp. vulgaris) effect on crop [3] | g (Brassica campestris L.) effect on crop (Brassica campestris L.) | c (Glycine max) effect on crop (Glycine max) | e (Triticum aestivum) effect on crop (Triticum aestivum) | d (directly sowed Oryza sativa) effect on crop [4] |
| --- | --- | --- | --- | --- | --- | --- | --- | --- | --- |
| CCOCc1nnc2c(C(=O)Nc3nnc(C)o3)ccc(C(F)(F)F)n12 [1-027] | 4 (Herbicidal ratio of 70% or more and less than 90%) | 3 (Herbicidal ratio of 40% or more and less than 70%) | 3 (Herbicidal ratio of 40% or more and less than 70%) | 3 (Herbicidal ratio of 40% or more and less than 70%) | 5 (Herbicidal ratio of 90% or more (almost completely withered)) | 4 (Herbicidal ratio of 70% or more and less than 90%) | 1 (Herbicidal ratio of 5% or more and less than 20%) | 2 (Herbicidal ratio of 20% or more and less than 40%) | 5 (Herbicidal ratio of 90% or more (almost completely withered)) |
| Cc1nnc(NC(=O)c2ccc(C(F)(F)F)n3c(C4=NOC(C)(C)C4)nnc23)o1 [1-029] | 3 (Herbicidal ratio of 40% or more and less than 70%) | 3 (Herbicidal ratio of 40% or more and less than 70%) | 2 (Herbicidal ratio of 20% or more and less than 40%) | 4 (Herbicidal ratio of 70% or more and less than 90%) | 5 (Herbicidal ratio of 90% or more (almost completely withered)) | 1 (Herbicidal ratio of 5% or more and less than 20%) | 1 (Herbicidal ratio of 5% or more and less than 20%) | 1 (Herbicidal ratio of 5% or more and less than 20%) | 3 (Herbicidal ratio of 40% or more and less than 70%) |
| CSCc1nnc2c(C(=O)Nc3nnc(C)o3)ccc(C(F)(F)F)n12 [1-030] | 4 (Herbicidal ratio of 70% or more and less than 90%) | 3 (Herbicidal ratio of 40% or more and less than 70%) | 3 (Herbicidal ratio of 40% or more and less than 70%) | 4 (Herbicidal ratio of 70% or more and less than 90%) | 5 (Herbicidal ratio of 90% or more (almost completely withered)) | 4 (Herbicidal ratio of 70% or more and less than 90%) | 2 (Herbicidal ratio of 20% or more and less than 40%) | 3 (Herbicidal ratio of 40% or more and less than 70%) | 5 (Herbicidal ratio of 90% or more (almost completely withered)) |
| Cc1nnc(NC(=O)c2ccc(C(F)(F)F)n3c(CSCC(F)(F)F)nnc23)o1 [1-031] | 3 (Herbicidal ratio of 40% or more and less than 70%) | 2 (Herbicidal ratio of 20% or more and less than 40%) | 2 (Herbicidal ratio of 20% or more and less than 40%) | 2 (Herbicidal ratio of 20% or more and less than 40%) | 3 (Herbicidal ratio of 40% or more and less than 70%) | 3 (Herbicidal ratio of 40% or more and less than 70%) | 1 (Herbicidal ratio of 5% or more and less than 20%) | 1 (Herbicidal ratio of 5% or more and less than 20%) | 3 (Herbicidal ratio of 40% or more and less than 70%) |
| CCSc1nnc2c(C(=O)Nc3nnc(C)o3)ccc(C(F)(F)F)n12 [1-032] | 4 (Herbicidal ratio of 70% or more and less than 90%) | 3 (Herbicidal ratio of 40% or more and less than 70%) | 3 (Herbicidal ratio of 40% or more and less than 70%) | 2 (Herbicidal ratio of 20% or more and less than 40%) | 5 (Herbicidal ratio of 90% or more (almost completely withered)) | 4 (Herbicidal ratio of 70% or more and less than 90%) | 0 (Herbicidal ratio of 5% or less (almost no effect)) | 1 (Herbicidal ratio of 5% or more and less than 20%) | 4 (Herbicidal ratio of 70% or more and less than 90%) |
| Cc1nnc(NC(=O)c2ccc(C(F)(F)F)n3c(SC(C)C)nnc23)o1 [1-033] | 4 (Herbicidal ratio of 70% or more and less than 90%) | 3 (Herbicidal ratio of 40% or more and less than 70%) | 4 (Herbicidal ratio of 70% or more and less than 90%) | 1 (Herbicidal ratio of 5% or more and less than 20%) | 5 (Herbicidal ratio of 90% or more (almost completely withered)) | 4 (Herbicidal ratio of 70% or more and less than 90%) | 2 (Herbicidal ratio of 20% or more and less than 40%) | 1 (Herbicidal ratio of 5% or more and less than 20%) | 3 (Herbicidal ratio of 40% or more and less than 70%) |
| CC[S+]([O-])c1nnc2c(C(=O)Nc3nnc(C)o3)ccc(C(F)(F)F)n12 (stereo not drawn) [1-034] | 4 (Herbicidal ratio of 70% or more and less than 90%) | 4 (Herbicidal ratio of 70% or more and less than 90%) | 3 (Herbicidal ratio of 40% or more and less than 70%) | 5 (Herbicidal ratio of 90% or more (almost completely withered)) | 5 (Herbicidal ratio of 90% or more (almost completely withered)) | 4 (Herbicidal ratio of 70% or more and less than 90%) | 1 (Herbicidal ratio of 5% or more and less than 20%) | 2 (Herbicidal ratio of 20% or more and less than 40%) | 4 (Herbicidal ratio of 70% or more and less than 90%) |
| Cc1nnc(NC(=O)c2ccc(C(F)(F)F)n3c([S+]([O-])C(C)C)nnc23)o1 (stereo not drawn) [1-035] | 5 (Herbicidal ratio of 90% or more (almost completely withered)) | 4 (Herbicidal ratio of 70% or more and less than 90%) | 4 (Herbicidal ratio of 70% or more and less than 90%) | 4 (Herbicidal ratio of 70% or more and less than 90%) | 5 (Herbicidal ratio of 90% or more (almost completely withered)) | 3 (Herbicidal ratio of 40% or more and less than 70%) | 3 (Herbicidal ratio of 40% or more and less than 70%) | 2 (Herbicidal ratio of 20% or more and less than 40%) | 4 (Herbicidal ratio of 70% or more and less than 90%) |
